Data from PubChem BioAssay (NCI).
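Growth conditions: 96-well plates. Treatment: test compound, 48 hours, 5 concentrations. Analysis: linear interpolation between bracketing concentrations; unreached endpoints set to highest concentration. Abbreviation: GI50, concentration required for 50% inhibition of growth. TGI is the concentration that stops growth completely.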

Experiments:
Assay in all cases: NCI-60 cell line screen, 48 h
DU-145 prostate = tested on: DU-145 prostate
MDA-MB-231 breast = tested on: MDA-MB-231 breast
NCI/ADR-RES ovarian = tested on: NCI/ADR-RES ovarian
PC-3 prostate = tested on: PC-3 prostate
DLD-1 colon = tested on: DLD-1 colon
DMS 114 small cell lung = tested on: DMS 114 small cell lung
HOP-18 NSCLC = tested on: HOP-18 NSCLC
KM20L2 colon = tested on: KM20L2 colon
M19-MEL melanoma = tested on: M19-MEL melanoma

With `CC(NC(=O)N(C)C)NC(=O)N(C)C` the TGI (DU-145 prostate) was over 10 µM, the TGI (MDA-MB-231 breast) was over 10 µM and the TGI (NCI/ADR-RES ovarian) was over 10 µM. For the same molecule, the TGI (PC-3 prostate) was over 10 µM.
`COC(=O)C1(O)CC(=O)CCC1c1ccc(OC)cc1` (stereo not given) gave a TGI (DLD-1 colon) of over 100 µM, a TGI (DMS 114 small cell lung) of over 100 µM and a TGI (HOP-18 NSCLC) of over 100 µM. For the same molecule, the TGI (KM20L2 colon) was over 100 µM.
With `C[N+](C)(C)CC1CCCCC1O` (stereo not given) the TGI (DLD-1 colon) was over 100 µM, the TGI (HOP-18 NSCLC) was over 100 µM and the TGI (KM20L2 colon) was over 100 µM. It also gave a TGI (M19-MEL melanoma) of over 100 µM.
Work on `Cc1ccc(NC(=O)c2cc(S(=O)(=O)N3C(=O)NC(=O)NS3(=O)=O)c(S)cc2Cl)cc1` yielded a GI50 (DU-145 prostate) of 23.2 µM, a TGI (DU-145 prostate) of 64 µM and a GI50 (MDA-MB-231 breast) of 20.4 µM. It also gave a TGI (MDA-MB-231 breast) of 57.9 µM, a GI50 (NCI/ADR-RES ovarian) of over 100 µM and a TGI (NCI/ADR-RES ovarian) of over 100 µM. It also gave a GI50 (PC-3 prostate) of 32.3 µM and a TGI (PC-3 prostate) of over 100 µM.
Molecule `O=C(/C=C/c1ccccc1)CC(=O)CCC(=O)Nc1ccc(Cl)cc1` has a TGI (DLD-1 colon) of over 100 µM, a TGI (DMS 114 small cell lung) of over 100 µM and a TGI (HOP-18 NSCLC) of over 100 µM. For the same molecule, the TGI (KM20L2 colon) was over 100 µM and the TGI (M19-MEL melanoma) was over 100 µM.
`CC(=O)OCC1OC(N2C(=O)C(=O)c3ccccc32)C(OC(C)=O)C(OC(C)=O)C1OC(C)=O` (stereo not given) was tested, and the TGI (DLD-1 colon) was over 100 µM, the TGI (DMS 114 small cell lung) was over 100 µM and the TGI (KM20L2 colon) was over 100 µM. It also gave a TGI (M19-MEL melanoma) of over 100 µM.
`COc1cc(NCCCCCCCNC(C)C)c2nccc(C)c2c1` gave a GI50 (DU-145 prostate) of 17 µM, a TGI (DU-145 prostate) of 31.4 µM and a GI50 (MDA-MB-231 breast) of 9.45 µM. For the same molecule, the TGI (MDA-MB-231 breast) was 22.4 µM, the GI50 (NCI/ADR-RES ovarian) was 14.3 µM and the TGI (NCI/ADR-RES ovarian) was 28.4 µM. It also gave a GI50 (PC-3 prostate) of 10.5 µM and a TGI (PC-3 prostate) of 23.9 µM.
With `O=c1c(F)cn(Cc2ccccc2CCl)c(=O)n1Cc1ccccc1CCl` the GI50 (DU-145 prostate) was 1.79 µM, the TGI (DU-145 prostate) was 3.42 µM and the GI50 (MDA-MB-231 breast) was 1.93 µM. The TGI (MDA-MB-231 breast) was 4.92 µM, the GI50 (NCI/ADR-RES ovarian) was 2.97 µM and the TGI (NCI/ADR-RES ovarian) was 11.8 µM. It also gave a GI50 (PC-3 prostate) of 2.54 µM and a TGI (PC-3 prostate) of 8.83 µM.
`O=C(O)c1ccccc1/C=N/N=C1c2ccccc2-c2ccccc21` showed a TGI (DU-145 prostate) of over 100 µM, a TGI (MDA-MB-231 breast) of over 100 µM and a TGI (NCI/ADR-RES ovarian) of over 100 µM. For the same molecule, the TGI (PC-3 prostate) was 83.4 µM.
In the case of `c1c[nH]c(CN2CCOCC2)n1`, the TGI (DU-145 prostate) is reported as over 100 µM, the TGI (MDA-MB-231 breast) is reported as over 100 µM and the TGI (NCI/ADR-RES ovarian) is reported as over 100 µM. The TGI (PC-3 prostate) was over 100 µM.
Work on `Nc1ccc(/C=C/C(=O)NCc2cc3cc(-c4ccc(C(=O)N5CCC(F)(F)CC5)cc4)cc(-c4ccc(F)cc4)c3o2)cn1` yielded a GI50 (DU-145 prostate) of 4.15 µM, a TGI (DU-145 prostate) of over 100 µM and a GI50 (MDA-MB-231 breast) of 15.1 µM. The TGI (MDA-MB-231 breast) was over 100 µM, the GI50 (NCI/ADR-RES ovarian) was 4.91 µM and the TGI (NCI/ADR-RES ovarian) was over 100 µM. The GI50 (PC-3 prostate) was 0.534 µM and the TGI (PC-3 prostate) was over 100 µM.
Work on `COc1ccc(CN2CCC/C=C/CC(Cl)(Cl)C2=O)cc1` yielded a TGI (DLD-1 colon) of over 100 µM, a TGI (DMS 114 small cell lung) of 71.3 µM and a TGI (HOP-18 NSCLC) of over 100 µM. It also gave a TGI (KM20L2 colon) of over 100 µM and a TGI (M19-MEL melanoma) of 95.2 µM.
`COc1ccc(C(=O)NCCN(C)C)c2nc3ccccc3nc12` gave a TGI (DLD-1 colon) of over 65.4 µM, a TGI (DMS 114 small cell lung) of 12.5 µM and a TGI (HOP-18 NSCLC) of over 82.6 µM. It also gave a TGI (KM20L2 colon) of 26.5 µM and a TGI (M19-MEL melanoma) of 9.9 µM.
For `COc1ccc(OC)c(Cn2cc3c(c2-c2ccccc2)CCc2cnoc2-3)c1`, the GI50 (DU-145 prostate) was 17.4 µM, the TGI (DU-145 prostate) was over 100 µM and the GI50 (MDA-MB-231 breast) was 5.98 µM. It also gave a TGI (MDA-MB-231 breast) of over 100 µM, a GI50 (NCI/ADR-RES ovarian) of 2.48 µM and a TGI (NCI/ADR-RES ovarian) of 7.55 µM. The GI50 (PC-3 prostate) was 8.73 µM and the TGI (PC-3 prostate) was over 100 µM.
`Oc1ccccc1-c1nn(CNc2ccccc2Cl)c(=S)o1` was tested, and the GI50 (MDA-MB-231 breast) was over 100 µM, the TGI (MDA-MB-231 breast) was over 100 µM and the GI50 (NCI/ADR-RES ovarian) was 18.2 µM. For the same molecule, the TGI (NCI/ADR-RES ovarian) was 72.7 µM, the GI50 (PC-3 prostate) was 99 µM and the TGI (PC-3 prostate) was over 100 µM.
